In ChEMBL document CHEMBL5370574, “Discovery and Characterization of Moracin C as an Anti-Gouty Arthritis/Hyperuricemia Candidate by Docking-Based Virtual Screening and Pharmacological Evaluation” (J Nat Prod, 2023):
The source made the active and inactive calls. The calls are words filed in the database; no cut-off is given here.

How the values were obtained:
[1] = molecular target: T1, Xanthine dehydrogenase/oxidase (Homo sapiens, UniProt P47989); assay: Inhibition of XOD (unknown origin) using xanthine as substrate preincubated for 30 mins followed by xanthine addition measured after 30 mins by microplate reader
T1 sequence (P47989 whole entry): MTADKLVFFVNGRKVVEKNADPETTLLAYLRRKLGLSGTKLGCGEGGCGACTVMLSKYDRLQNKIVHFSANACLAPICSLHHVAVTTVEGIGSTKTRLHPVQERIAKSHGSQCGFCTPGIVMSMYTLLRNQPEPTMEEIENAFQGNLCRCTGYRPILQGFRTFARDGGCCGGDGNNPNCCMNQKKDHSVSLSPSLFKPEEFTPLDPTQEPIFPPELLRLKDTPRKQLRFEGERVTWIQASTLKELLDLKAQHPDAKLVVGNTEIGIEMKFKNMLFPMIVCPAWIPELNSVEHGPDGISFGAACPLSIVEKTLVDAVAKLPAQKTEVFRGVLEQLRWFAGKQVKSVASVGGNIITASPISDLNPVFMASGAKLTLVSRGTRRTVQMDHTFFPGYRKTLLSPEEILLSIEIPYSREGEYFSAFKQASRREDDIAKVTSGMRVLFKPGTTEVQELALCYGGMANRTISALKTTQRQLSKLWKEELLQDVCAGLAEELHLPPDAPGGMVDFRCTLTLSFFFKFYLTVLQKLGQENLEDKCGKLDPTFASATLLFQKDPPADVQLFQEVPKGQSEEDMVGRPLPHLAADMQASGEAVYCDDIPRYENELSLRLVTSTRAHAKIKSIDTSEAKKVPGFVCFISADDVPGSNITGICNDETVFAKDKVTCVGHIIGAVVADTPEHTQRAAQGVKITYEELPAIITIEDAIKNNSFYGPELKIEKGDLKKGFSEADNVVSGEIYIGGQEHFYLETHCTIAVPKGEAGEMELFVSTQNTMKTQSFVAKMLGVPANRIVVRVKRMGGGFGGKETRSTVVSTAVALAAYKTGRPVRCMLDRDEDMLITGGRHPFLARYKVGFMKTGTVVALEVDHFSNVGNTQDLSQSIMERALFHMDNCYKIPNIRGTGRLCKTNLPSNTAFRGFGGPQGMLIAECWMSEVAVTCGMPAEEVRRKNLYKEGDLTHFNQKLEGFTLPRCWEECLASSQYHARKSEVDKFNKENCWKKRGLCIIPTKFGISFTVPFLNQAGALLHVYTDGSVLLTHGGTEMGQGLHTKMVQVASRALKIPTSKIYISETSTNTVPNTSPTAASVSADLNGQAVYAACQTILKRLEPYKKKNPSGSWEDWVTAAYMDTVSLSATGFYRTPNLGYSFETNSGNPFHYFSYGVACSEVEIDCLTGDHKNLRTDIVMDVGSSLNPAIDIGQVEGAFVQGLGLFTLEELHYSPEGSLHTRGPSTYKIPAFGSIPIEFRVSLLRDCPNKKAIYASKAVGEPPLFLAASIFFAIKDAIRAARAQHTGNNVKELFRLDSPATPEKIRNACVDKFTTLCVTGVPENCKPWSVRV

[2] = molecular target: T1, Xanthine dehydrogenase/oxidase; assay: Inhibition of XOD (unknown origin) using xanthine as substrate at 1 uM preincubated for 30 mins followed by xanthine addition measured after 30 mins by microplate reader relative to control; conditions: 0.5 h, time 60 min
Mus musculus [3] = assay: Hypouricemic activity in hypoxanthine/potassium oxonate-induced hyperuricemic Kunming mouse model assessed as decrease in liver XOD level at 5 to 20 mg/kg, po administered for 7 days measured 4 hrs post last dose by automatic biochemical analyzer; assay type: functional, organism-based; conditions: dose 5-20 mg/kg, time 7.0 day
RAW264.7 [4] = assay: Antiinflammatory activity in MSU-induced mouse RAW264.7 cells assessed as decrease in IL-1beta mRNA expression at 1 to 10 uM preincubated for 2 hrs followed by MSU stimulation and measured after 12 hrs by qRT-PCR analysis; assay type: functional, cell-based; conditions: dose 1-10 µM, time 14.0 hrs
Rattus norvegicus [5] = assay: Antiarthritic activity against MSU-induced Sprague-Dawley rat OA model assessed as inflammation index at 20 mg/kg, ig administered for 3 days; assay type: functional; conditions: time 3 day
Rattus norvegicus [6] = assay: Antiarthritic activity against MSU-induced Sprague-Dawley rat OA model assessed as reduction of serum IL-1beta protein expression level at 5 to 20 mg/kg, ig administered for 3 days by ELISA; assay type: functional, organism-based; conditions: dose 5-20 mg/kg, time 3.0 day
Rattus norvegicus [7] = assay: Antiarthritic activity against MSU-induced Sprague-Dawley rat OA model assessed as dysfunction index at 5 mg/kg, ig administered for 3 days; assay type: functional; conditions: time 3 day
Rattus norvegicus [8] = assay: Antiarthritic activity against MSU-induced Sprague-Dawley rat OA model assessed as reduction of serum IL-1beta protein expression level at 10 mg/kg, ig administered for 3 days by ELISA; assay type: functional, organism-based; conditions: time 3.0 day
Rattus norvegicus [9] = assay: Antiarthritic activity against MSU-induced Sprague-Dawley rat OA model assessed as toe swelling volume variation at 20 mg/kg, ig administered for 3 days; assay type: functional; conditions: time 3 day
Rattus norvegicus [10] = assay: Antiarthritic activity against MSU-induced Sprague-Dawley rat OA model assessed as dysfunction index at 1 mg/kg, ig administered for 3 days; assay type: functional, organism-based; conditions: time 3.0 day
Rattus norvegicus [11] = assay: Antiarthritic activity against MSU-induced Sprague-Dawley rat OA model assessed as inflammation index at 5 mg/kg, ig administered for 3 days; assay type: functional; conditions: time 3 day
[12] = molecular target: T2, Solute carrier family 22 member 12 (Homo sapiens, UniProt Q96S37); assay: Inhibition of URAT1 (unknown origin) expressed in HEK293T cells assessed as reduction in 14C-uric acid uptake at 10 uM; assay type: cell-based
T2 sequence (Q96S37 whole entry): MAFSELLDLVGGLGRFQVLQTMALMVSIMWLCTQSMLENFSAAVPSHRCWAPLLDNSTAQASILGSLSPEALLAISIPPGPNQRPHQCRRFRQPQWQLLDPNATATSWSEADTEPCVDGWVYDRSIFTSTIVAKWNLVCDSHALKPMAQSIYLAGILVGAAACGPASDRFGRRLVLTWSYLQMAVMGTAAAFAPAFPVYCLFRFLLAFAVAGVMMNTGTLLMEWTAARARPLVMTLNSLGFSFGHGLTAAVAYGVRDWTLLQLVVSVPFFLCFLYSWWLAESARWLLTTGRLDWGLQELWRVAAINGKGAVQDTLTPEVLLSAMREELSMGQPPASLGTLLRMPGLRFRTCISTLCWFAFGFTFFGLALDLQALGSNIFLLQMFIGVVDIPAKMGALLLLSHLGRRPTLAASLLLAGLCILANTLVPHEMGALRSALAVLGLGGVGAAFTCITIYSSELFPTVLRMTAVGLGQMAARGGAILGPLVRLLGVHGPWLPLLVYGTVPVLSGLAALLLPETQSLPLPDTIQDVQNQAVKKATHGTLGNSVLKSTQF

RAW264.7 [13] = assay: Antiinflammatory activity in MSU-induced mouse RAW264.7 cells assessed as decrease in TNF-alpha mRNA expression at 1 to 10 uM preincubated for 2 hrs followed by MSU stimulation and measured after 12 hrs by qRT-PCR analysis; assay type: functional, cell-based; conditions: dose 1-10 µM, time 14.0 hrs
Rattus norvegicus [14] = assay: Antiarthritic activity against MSU-induced Sprague-Dawley rat OA model assessed as reduction in caspase-1 mRNA expression level in tissue joint at 5 to 20 mg/kg, ig administered for 3 days by qRT-PCR analysis; assay type: functional, organism-based; conditions: dose 5-20 mg/kg, time 3.0 day
[15] = molecular target: T3, Solute carrier family 2, facilitated glucose transporter member 9 (Homo sapiens) (UniProt Q9NRM0); assay: Inhibition of GLUT9 (unknown origin) expressed in HEK293T cells assessed as effect on uric acid induced current at 10 uM; assay type: cell-based
T3 sequence (whole entry): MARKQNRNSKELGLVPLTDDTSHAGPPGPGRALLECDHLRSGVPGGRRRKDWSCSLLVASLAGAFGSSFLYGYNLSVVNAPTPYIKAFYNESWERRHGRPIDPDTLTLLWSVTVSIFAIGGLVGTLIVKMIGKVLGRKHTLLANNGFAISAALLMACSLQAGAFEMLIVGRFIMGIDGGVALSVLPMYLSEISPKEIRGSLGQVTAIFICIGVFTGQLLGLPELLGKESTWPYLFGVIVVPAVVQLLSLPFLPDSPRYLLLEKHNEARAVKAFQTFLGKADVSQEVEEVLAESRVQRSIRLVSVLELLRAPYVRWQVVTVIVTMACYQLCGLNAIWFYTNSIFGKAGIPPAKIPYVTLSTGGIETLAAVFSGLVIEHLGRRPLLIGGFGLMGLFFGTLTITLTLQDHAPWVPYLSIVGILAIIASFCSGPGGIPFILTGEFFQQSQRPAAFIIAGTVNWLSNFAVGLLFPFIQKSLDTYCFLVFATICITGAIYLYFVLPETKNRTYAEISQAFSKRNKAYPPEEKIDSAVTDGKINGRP

Mus musculus [16] = assay: Hypouricemic activity in hypoxanthine/potassium oxonate-induced hyperuricemic Kunming mouse model assessed as decrease in serum uric acid level at 5 to 20 mg/kg, po administered for 7 days measured 4 hrs post last dose by biochemical analyzer; assay type: functional, organism-based; conditions: dose 5-20 mg/kg, time 7.0 day
Rattus norvegicus [17] = assay: Antiarthritic activity against MSU-induced Sprague-Dawley rat OA model assessed as toe swelling volume variation at 10 mg/kg, ig administered for 3 days; assay type: functional; conditions: time 3 day
Rattus norvegicus [18] = assay: Antiarthritic activity against MSU-induced Sprague-Dawley rat OA model assessed as dysfunction index at 20 mg/kg, ig administered for 3 days; assay type: functional; conditions: time 3 day
Rattus norvegicus [19] = assay: Antiarthritic activity against MSU-induced Sprague-Dawley rat OA model assessed as inflammation index at 1 mg/kg, ig administered for 3 days; assay type: functional, organism-based; conditions: time 3.0 day
Rattus norvegicus [20] = assay: Antiarthritic activity against MSU-induced Sprague-Dawley rat OA model assessed as reduction in NLRP3 mRNA expression level in tissue joint at 5 to 20 mg/kg, ig administered for 3 days by qRT-PCR analysis; assay type: functional, organism-based; conditions: dose 5-20 mg/kg, time 3.0 day
Rattus norvegicus [21] = assay: Antiarthritic activity against MSU-induced Sprague-Dawley rat OA model assessed as toe swelling volume variation at 1 mg/kg, ig administered for 3 days; assay type: functional, organism-based; conditions: time 3.0 day
Rattus norvegicus [22] = assay: Antiarthritic activity against MSU-induced Sprague-Dawley rat OA model assessed as reduction in ASC mRNA expression level in tissue joint at 5 to 20 mg/kg, ig administered for 3 days by qRT-PCR analysis; assay type: functional, organism-based; conditions: dose 5-20 mg/kg, time 3.0 day
Rattus norvegicus [23] = assay: Antiarthritic activity against MSU-induced Sprague-Dawley rat OA model assessed as toe swelling volume variation at 5 mg/kg, ig administered for 3 days; assay type: functional; conditions: time 3 day
RAW264.7 [24] = assay: Antiinflammatory activity in MSU-induced mouse RAW264.7 cells assessed as decrease in TNF-alpha expression preincubated for 2 hrs followed by MSU stimulation and measured after 12 hrs by ELISA; assay type: functional, cell-based; conditions: dose 1-10 µM, time 14.0 hrs
RAW264.7 [25] = assay: Antiinflammatory activity in MSU-induced mouse RAW264.7 cells assessed as decrease in IL-1beta expression preincubated for 2 hrs followed by MSU stimulation and measured after 12 hrs by ELISA; assay type: functional, cell-based; conditions: dose 1-10 µM, time 14.0 hrs
Rattus norvegicus [26] = assay: Antiarthritic activity against MSU-induced Sprague-Dawley rat OA model assessed as dysfunction index at 10 mg/kg, ig administered for 3 days; assay type: functional; conditions: time 3 day
Mus musculus [27] = assay: Hypouricemic activity in hypoxanthine/potassium oxonate-induced hyperuricemic Kunming mouse model assessed as decrease in serum XOD level at 5 to 20 mg/kg, po administered for 7 days measured 4 hrs post last dose by automatic biochemical analyzer; assay type: functional, organism-based; conditions: dose 5-20 mg/kg, time 7.0 day
Mus musculus [28] = assay: Hypouricemic activity in hypoxanthine/potassium oxonate-induced hyperuricemic Kunming mouse model assessed as decrease in uric acid level in urine at 5 to 20 mg/kg, po administered for 7 days measured 4 hrs post last dose by automatic biochemical analyzer; assay type: functional, organism-based; conditions: dose 5-20 mg/kg, time 7.0 day
Rattus norvegicus [29] = assay: Antiarthritic activity against MSU-induced Sprague-Dawley rat OA model assessed as reduction of serum TNF-alpha protein expression level at 5 to 20 mg/kg, ig administered for 3 days by ELISA; assay type: functional, organism-based; conditions: dose 5-20 mg/kg, time 3.0 day
Rattus norvegicus [30] = assay: Antiarthritic activity against MSU-induced Sprague-Dawley rat OA model assessed as inflammation index at 10 mg/kg, ig administered for 3 days; assay type: functional; conditions: time 3 day
[31] = molecular target: T1, Xanthine dehydrogenase/oxidase; assay: Inhibition of XOD (unknown origin)
[32] = molecular target: T2, Solute carrier family 22 member 12; assay: Inhibition of URAT1(unknown origin)

COc1ccc2c(=O)c(-c3ccc(O)cc3)coc2c1 [ISOFORMONENTIN]
IC50 [1]: 13 µM | inhibition at 1 µM [2]: 25%

CC(C)=CCc1c(O)cc(-c2cc3ccc(O)cc3o2)cc1O [MORACIN C]
Activity (Mus musculus [3]): Active | Activity (RAW264.7 [4]): Active | IC50 [1]: 0.25 µM | Activity_index (Rattus norvegicus [5]): 0.6 | Activity (Rattus norvegicus [6]): Active | Activity_index (Rattus norvegicus [7]): 0 | Activity (Rattus norvegicus [8]): Active | Activity (Rattus norvegicus [9]): 0.06 mL | Activity (Rattus norvegicus [10]): Active | Activity_index (Rattus norvegicus [11]): 1 | inhibition (INH) [12]: Not Active | Activity (RAW264.7 [13]): Active | Activity (Rattus norvegicus [14]): Active | inhibition [15]: inactive | Activity (Mus musculus [16]): Active | Activity (Rattus norvegicus [17]): 0.1 mL | Activity_index (Rattus norvegicus [18]): 0 | Activity (Rattus norvegicus [19]): Active | Activity (Rattus norvegicus [20]): Active | Activity (Rattus norvegicus [21]): Active | Activity (Rattus norvegicus [22]): Active | Activity (Rattus norvegicus [23]): 0.16 mL | Activity (RAW264.7 [24]): Dose-Dependent Effect | Activity (RAW264.7 [25]): Dose-Dependent Effect | Activity_index (Rattus norvegicus [26]): 0 | inhibition at 1 µM [2]: 70% | Activity (Mus musculus [27]): Active | Activity (Mus musculus [28]): inactive | Activity (Rattus norvegicus [29]): Active | Activity_index (Rattus norvegicus [30]): 1

CC1(C)C=Cc2c(O)cc(-c3cc4ccc(O)cc4o3)cc2O1 [MORACIN D]
IC50 [1]: 5.1 µM | inhibition at 1 µM [2]: 32%

O=c1c(O)c(-c2ccc(O)cc2O)oc2cc(O)cc(O)c12 [MORIN]
IC50 [31]: 25 µM | Ki [32]: 2 µM

CC1(C)C=Cc2c(ccc3c2O[C@H]2c4ccc(O)cc4OC[C@@H]32)O1 [PHASEOLIN]
inhibition at 1 µM [2]: < 20%

COc1ccc(-c2cc(=O)c3c(O)c(OC)c(OC)cc3o2)cc1 [SALVIGENIN]
inhibition at 1 µM [2]: < 20%
